Data on two compounds can be found in patent US4033969A, “Vincamine derivatives” (Agence Nationale de Valorisation de la Recherche (ANVAR), priority 1972, dated 1977).

Holding throughout (assay type): in vivo
Data set [1] can be described thus: Acute toxicity in mice (i.v.). The following applies: mouse, in vivo, iv. The procedure: (§1) 1. Acute toxicity in mice
(§2) The dosage of test material which, on intravenous administration in mice causes the death of 50% of the test animals is determined (death rate is determined after 10 days of observation).

In data set [2] the test system is mice. The data set can be described thus: Survival time of mice under a confined atmosphere. The following applies: for ED50: Mus musculus, protected = survival time greater by at least 30% than reference animals, read-out: ED50 (protects 50% of the test animals). The procedure: 2. Survival time of mice under a confined atmosphere
Mice are individually placed in sealed 250 ml glass jars. Survival time is measured taking respiratory failure as a criterion of death.
The test materials are administered as aqueous solutions:
either intraperitoneally, in which case the animals are submitted to the test 30 minutes after injection,
or orally, in which case the animals are submitted to the test 1.5 hour after administration.
The dosage of material (ED50) which protects 50% of the test animals is determined: is considered as protected, a mouse having a survival time greater by a factor of at least 30% with respect to the average survival time of the reference animals.

The test system of the next data set is spinal rat. The data set can be described thus: Electroencephalographic consequences of cerebral hypoxia induced by temporary ischemia in rat. The following applies: for Cortical recovery time / Cortical resistance time: rat ischemia, 5 min prior; for Cortical recovery time: saline 19.8 ± 1.3; for Cortical resistance time: saline 22.3 ± 0.6. The procedure: 3. Electroencephalographic consequences of cerebral hypoxia induced by temporary ischemia in rat
In spinal rat, the effects of a temporary cerebral ischemic hypoxia obtained by ligation of the vertebral arteries and clamping, during 60 seconds, of the carotid arteries, are investigated at the level of the electrocorticogram (recorded in fronto-parietal lead). The following times are determined:
on the one hand, the "cortical resistance" time, i.e., the period of time which elapses between failure of the cerebral circulation and the appearance, in the recording, of the "dectric silence"disappearance of cortical electrogenesis), and
on the other hand, the "cortical recovery" time, i.e., the period of time which elapses between unclamping of the carotid arteries and the reappearance of a cortical electrogenesis.
The test materials are administered intravenously 5 minutes prior to ischemia. The results obtained in the treated animals are compared with those obtained in a lot of reference animals according to Student's "t" method.

A further data set relates to curarized rat. The data set can be described thus: Electroencephalographic consequences of cerebral hypoxia induced by temporary asphyxia in rat. The following applies: for Cortical recovery time / Cortical resistance time: rat asphyxia, 5 min prior; for Cortical recovery time: saline 42.3 ± 7.3; for Cortical resistance time: saline 77.8 ± 2.9. From the text:
4. Electroencephalographic consequences of a cerebral hypoxia induced by temporary asphyxia in rat
The effects of an asphyxic cerebral hypoxia, obtained by a two-minute interruption of the artificial respiration of a curarized rat are investigated at the level of the electro-corticogram (recorded in fronto-parietal lead) by determining:
on the one hand the "cortical resistance" time, i.e., the period of time which elapses between the discontinuation of artificial respiration and the appearance in the recording of the "electric silence" (disappearance of cortical electrogenesis),
on the other hand, the "cortical recovery" time, i.e., the period of time which elapses between the resumption of artificial respiration and the reappearance of a cortical electrogenesis.
(§3) The test materials are administered intravenously 5 minutes prior to asphyxia. The results obtained in the treated animals are compared with those obtained in a lot of reference animals, according to Student's "t" method.

The next data set has as its system curarized cat. The data set can be described thus: Electroencephalographic consequences of cerebral hypoxia induced by temporary asphyxia in cat. Conditions: for Cortical recovery time / Cortical resistance time: cat asphyxia, 5 min prior; for Cortical recovery time: saline 27.3 ± 2.3; for Cortical resistance time: saline 108 ± 5.6.
From the text: 5. Electroencephalographic consequences of cerebral hypoxia induced by temporary asphyxia in cat
The effects of an asphyxic cerebral hypoxia, obtained by temporary discontinuance of the artificial respiration of a curarized cat are investigated at the level of the electrocorticogram (recorded in parieto-occipital lead), by determining:
on the one hand, the "cortical resistance" time, i.e., the period of time which elapses between the discontinuance of the artificial respiration and the appearance in the recording of the "electric silence" (disappearance of cortical electrogenesis),
on the other hand, the "cortical recovery" time, i.e., the period of time which elapses between the resumption of artificial respiration and the reappearance of a cortical electrogenesis. The resumption of artificial respiration is effected in all cases 45 seconds after appearance of the cortical silence.
as §3

Data set [3] deals with mice. The data set can be described thus: Acute toxicity in mice (i.v.). The following applies: mice. The procedure: as §1, §2
Setting [4] is: ip, 0.5 h, i.p., 30 min before test.
[5] abbreviates: 2.5 mg/kg i.v., n=6, mean ± standard deviation from mean.
Where [6] appears, read: 2.5 mg/kg i.v., n=8, mean ± standard deviation from mean.

Read-outs that look alike come from different tables or passages of the source.

With `CC[C@]12CCCN3CCc4c(n(c5ccccc45)[C@@](O)(C(=O)OC)C1)[C@@H]32` (racemic) [Vincamine, (.-+.)-Vincamine], the LD50 – broadly, the dose at which mortality reaches 50% – at 240 h in data set [1] (mice, i.v., death rate after 10 days of observation) was 62 mg/kg. Besides, the 50% effective dose (ED50) (commonly the dose at which the effect has come halfway, by size or by number of responders) with mice [2] (setting [4]) stood at 18 mg/kg; in the data set on mice [2] (po, 1.5 hour before test) it was 40 mg/kg. Moreover, the “Number of mice protected” value in the data set with mice [2] (i.p., 1 mg/kg, 30 min before test) is on record as 0/6; in the data set with mice [2] (i.p., 5 mg/kg, 30 min before test) it was 1/6; in the data set with mice [2] (i.p., 25 mg/kg, 30 min before test), 4/6; with mice [2] (p.o., 25 mg/kg, 1.5 hour before test), 2/6; in the data set with mice [2] (p.o., 50 mg/kg, 1.5 hour before test), 4/6; in the data set on mice [2] (p.o., 100 mg/kg, 1.5 hour before test), 5/6. Further, the Cortical recovery time with spinal rat (setting [5]) stood at 21.8 ± 2.0 s; with spinal rat (5 mg/kg i.v., n=7), 19.9 ± 3.0 s; in the data set with curarized rat (setting [5]) it was 55.5 ± 20.2 s; in the data set on curarized rat (5.0 mg/kg i.v., n=6), 32.8 ± 1.8 s; in the data set on curarized cat (setting [6]), 24.6 ± 3.4 s; in the data set with curarized cat (5 mg/kg i.v., n=8, (*) significant P <0.05 vs controls) it was 19.6 ± 1.4 s. Besides, the Cortical resistance time with spinal rat (setting [5]) worked out at 22.2 ± 1.2 s; in the data set with spinal rat (5 mg/kg i.v., n=7) it was 23.4 ± 0.9 s; with curarized rat (setting [5]) it was 83.3 ± 6.4 s; with curarized rat (5.0 mg/kg i.v., n=6) it was 89.0 ± 7.6 s; with curarized cat (setting [6]) it was 101 ± 13.9 s; in the data set on curarized cat (5 mg/kg i.v., n=8) it was 101 ± 5.6 s. For the same compound, the protective activity entry was “free from any protective activity” with spinal rat (rat, ischemia, 2.5 and 5 mg/kg i.v.); “free from any protective activity” in the data set with curarized rat (rat, asphyxia, 2.5 and 5 mg/kg i.v.); “apparent only at a tenfold dosage of 5 mg/kg i.v” in the data set with curarized cat (cat, asphyxia, 5 mg/kg i.v. (tenfold dosage)).
Take `COC(=O)[C@@]1(O)C[C@@H]2CCCN3CCc4c(n1c1ccccc41)[C@H]23` (relative stereo) [Deethylvincamine, (±) 20-Deethyl-vincamine]: the LD50 at 240 h in data set [1] stood at 40 mg/kg. In addition, the “acute toxicity compared with vincamine” value in the data set with mice [3] is recorded as “substantially of the same order of magnitude as that of vincamine”. Besides, the ED50 in the data set on mice [2] (setting [4]) was 8 mg/kg; in the data set with mice [2] (po, 1.5 hour before test), 24.5 mg/kg. Also, the “Number of mice protected” value with mice [2] (i.p., 3 mg/kg, 30 min before test) is listed as 1/6; with mice [2] (i.p., 9 mg/kg, 30 min before test), 3/6; in the data set on mice [2] (i.p., 27 mg/kg, 30 min before test) it was 6/6; with mice [2] (p.o., 7.5 mg/kg, 1.5 hour before test), 0/6; in the data set on mice [2] (p.o., 15 mg/kg, 1.5 hour before test) it was 1/6; with mice [2] (p.o., 30 mg/kg, 1.5 hour before test) it was 4/6. Further, in the data set with mice [2] (mice, confined atmosphere, i.p. and p.o., compared with vincamine), the “protective activity (increase of the survival time)” value is reported as “markedly superior to that of vincamine”. Further, the Cortical recovery time in the data set on spinal rat (0.25 mg/kg i.v., n=6) came out at 20.3 ± 2.7 s; with spinal rat (0.5 mg/kg i.v., n=6, (*) significant P < 0.05 vs controls), 14.3 ± 1.1 s; in the data set on curarized rat (0.5 mg/kg i.v., n=6), 38.8 ± 5.9 s; with curarized rat (1 mg/kg i.v., n=7, (*) significant P<0.05 vs controls), 23.0 ± 5.0 s; in the data set on curarized cat (0.5 mg/kg i.v., n=6, (*) significant P <0.05 vs controls), 19.0 ± 2.0 s. Also, the Cortical resistance time in the data set with spinal rat (0.25 mg/kg i.v., n=6) worked out at 25.3 ± 1.2 s; in the data set on spinal rat (0.5 mg/kg i.v., n=6), 24.3 ± 1.6 s; with curarized rat (0.5 mg/kg i.v., n=6) it was 84.2 ± 4.5 s; in the data set with curarized rat (1 mg/kg i.v., n=7), 78.0 ± 5.6 s; in the data set on curarized cat (0.5 mg/kg i.v., n=6), 98 ± 10.8 s. The “protective activity (decrease of time required for resumption of cortical electrogenesis)” value with spinal rat (rat, ischemia, 0.5 mg/kg i.v.) is “marked protective activity”; in the data set on curarized rat (rat, asphyxia, 1 mg/kg i.v.), “marked protective activity”; in the data set on curarized cat (cat, asphyxia, 0.5 mg/kg i.v.), “exhibits a protective activity”.
